From patent US8278293B2, “Diazo bicyclic Smac mimetics and the uses thereof” (The Regents of the University of Michigan, priority 2007, dated 2012)
Like-named read-outs stand apart in the source and are kept apart here.

Columns and labels:
[1] = tested on: SK-OV-3 ovarian cancer cell line; experiment: Cell growth inhibition, WST-8 assay, SK-OV-3; assay type: cell-based; conditions: 4 days, WST-8, read-out: SK-OV-3 IC50
Protocol: (§1) The effect of the compounds of the present invention on the growth of various cancer cell lines was tested. Cells were seeded in 96-well flat bottom cell culture plates at a density of 3000 cells/well with a tested compound and incubated at 37° C. in an atmosphere of 95% air and 5% CO2 for 4 days. […] Dojindo Molecular Technologies, Inc., Gaithersburg, Md.). […] The absorbance of the samples was measured at 450 nm using a ULTRA Tecan Reader (Molecular Device). […] The ability of SM-406 to inhibit cell growth as a single agent was tested in the MDA-MB-231 breast cancer cell line, SK-OV-3 and OVCAR-4 ovarian cancer cell lines and SK-MeI-2 melanoma cancer cell line. Cells were treated for 4 days. Cell growth was determined using a WST-based assay.

XIAP BIR3 = XIAP BIR3 (Homo sapiens, UniProt P98170); experiment: Fluorescence polarization (FP) based competitive binding assay to XIAP BIR3; design: human XIAP (residues 241-356) fused to His-tag; His-tag; conditions: FP binding, XIAP BIR3 30 nM, SM5F 5 nM
XIAP BIR3, sequence (P98170 241-356): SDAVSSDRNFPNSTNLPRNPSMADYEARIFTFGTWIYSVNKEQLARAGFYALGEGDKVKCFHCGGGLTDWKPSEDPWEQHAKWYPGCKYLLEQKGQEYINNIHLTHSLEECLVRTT

[2] = tested on: MDA-MB-231 human breast cancer cell line; experiment: Cell growth inhibition, WST-8 assay, MDA-MB-231; assay type: cell-based
Protocol: as §1

[3] = Homo sapiens, MDA-MB-231, 96 h, 4 days, WST-8, read-out: MDA-MB-231 IC50

Structure (SMILES)	IC50 ([1]; listed as SH-207) [µM]	IC50 [1] [µM]	IC50 (XIAP BIR3) [µM]	IC50 ([2]; 4 days, WST-8, listed as SH-207, read-out: MDA-MB-231 IC50) [µM]	IC50 ([2]; 4 days, WST-8, read-out: MDA-MB-231 IC50) [µM]	IC50 ([1]; Homo sapiens, SK-OV-3, 96 h) [µM]	IC50 [2, 3] [µM]	IC50 ([2]; Homo sapiens, MDA-MB-231, 96 h, read-out: MDA-MB-231 IC50 (μM)) [µM]
CN[C@@H](C)C(=O)N[C@H]1CN(C(=O)Cc2ccccc2)CCC[C@H]2CC[C@@H](C(=O)NC(c3ccccc3)c3ccccc3)N2C1=O [SM-207]	< 1	< 10	< 1	< 1	< 10	–	–	–
CN[C@@H](C)C(=O)N[C@H]1CN(C(=O)C(C)C)CC[C@H]2CC[C@@H](C(=O)NC(c3ccc(F)cc3)c3ccc(F)cc3)N2C1=O [SM-209]	–	–	< 1	–	–	< 10	< 10	–
CN[C@@H](C)C(=O)N[C@H]1CN(C(=O)CC(C)C)CC[C@H]2CC[C@@H](C(=O)NC(c3ccc(F)cc3)c3ccc(F)cc3)N2C1=O [SM-210]	–	–	< 1	–	–	< 1	< 1	–
CCCN[C@@H](C)C(=O)N[C@H]1CN(C(=O)CC(C)C)CC[C@H]2CC[C@@H](C(=O)NC(c3ccccc3)c3ccccc3)N2C1=O [SM-211]	–	–	< 1	–	–	< 10	< 10	–
CC[C@H](NC)C(=O)N[C@H]1CN(C(=O)CC(C)C)CC[C@H]2CC[C@@H](C(=O)NC(c3ccccc3)c3ccccc3)N2C1=O [SM-212]	–	–	< 1	–	–	< 10	< 10	–
CC(C)CC(=O)N1CC[C@H]2CC[C@@H](C(=O)NC(c3ccccc3)c3ccccc3)N2C(=O)[C@@H](NC(=O)[C@H](C)NCCO)C1 [SM-213]	–	–	< 1	–	–	< 10	< 10	–
CN[C@@H](C)C(=O)N[C@H]1CNCC[C@H]2CC[C@@H](C(=O)NC(c3ccccc3)c3ccccc3)N2C1=O [SM-227]	–	–	–	–	–	< 10	< 10	–
CN[C@@H](C)C(=O)N[C@H]1CN(C(=O)CC(C)C)CC[C@H]2CC[C@@H](CN(Cc3ccccc3)C(C)=O)N2C1=O [SM-230]	–	–	< 10	–	–	< 100	< 100	–
CN[C@@H](C)C(=O)N[C@H]1CN(C(C)=O)CC[C@H]2CCC(C(=O)NC(c3ccccc3)c3ccccc3)N2C1=O (stereo partly shown) [SM-330]	–	–	–	–	–	–	–	< 1
CN[C@@H](C)C(=O)N[C@H]1CN(C(=O)Cc2ccc(F)cc2)CC[C@H]2CCC(C(=O)NC(c3ccccc3)c3ccccc3)N2C1=O (stereo partly shown) [SM-350]	–	–	< 1	–	–	< 1	< 1	–
CN[C@@H](C)C(=O)N[C@H]1CN(C(=O)Cc2ccc(F)cc2F)CC[C@H]2CCC(C(=O)NC(c3ccccc3)c3ccccc3)N2C1=O (stereo partly shown) [SM-356]	–	–	< 1	–	–	–	< 1	–
CN[C@@H](C)C(=O)N[C@H]1CN(C(=O)Cc2ccccc2)CC[C@H]2CC[C@@H](C(=O)NC3CCCc4ccccc43)N2C1=O (stereo partly shown) [SM-376]	–	–	< 0.1	–	–	< 1	< 1	–
CN[C@@H](C)C(=O)N[C@H]1CN(C(=O)Cc2ccc(F)cc2)CC[C@H]2CC[C@@H](C(=O)NC3CCCc4ccccc43)N2C1=O (stereo partly shown) [SM-377]	–	–	< 0.1	–	–	< 1	< 1	–
CN[C@@H](C)C(=O)N[C@H]1CN(C(=O)Cc2ccccc2)CC[C@H]2CC[C@@H](C(=O)NCc3ccc(F)cc3)N2C1=O [SM-401]	–	–	< 1	–	–	< 1	< 1	–
CN[C@@H](C)C(=O)N[C@H]1CN(C(=O)Cc2ccc(F)cc2)CC[C@H]2CC[C@@H](C(=O)NCc3ccc(F)cc3)N2C1=O [SM-402]	–	–	< 1	–	–	< 1	< 1	–
CN[C@@H](C)C(=O)N[C@H]1CN(C(=O)Cc2ccccc2)CC[C@H]2CC[C@@H](C(=O)NC(c3ccc(F)cc3)c3ccc(F)cc3)N2C1=O [SM-403]	–	–	< 1	–	–	< 1	< 1	–
CN[C@@H](C)C(=O)N[C@H]1CN(C(=O)CCc2ccc(F)cc2)CC[C@H]2CC[C@@H](C(=O)NC(c3ccc(F)cc3)c3ccc(F)cc3)N2C1=O [SM-404]	–	–	< 1	–	–	< 1	< 1	–

Structure (SMILES)	IC50 ([1]; listed as SH-207) [µM]	IC50 [1] [µM]	IC50 (XIAP BIR3) [µM]	IC50 ([2]; 4 days, WST-8, listed as SH-207, read-out: MDA-MB-231 IC50) [µM]	IC50 ([2]; 4 days, WST-8, read-out: MDA-MB-231 IC50) [µM]	IC50 ([1]; Homo sapiens, SK-OV-3, 96 h) [µM]	IC50 [2, 3] [µM]	IC50 ([2]; Homo sapiens, MDA-MB-231, 96 h, read-out: MDA-MB-231 IC50 (μM)) [µM]
CN[C@@H](C)C(=O)N[C@H]1CN(C(=O)CC2CCCC2)CC[C@H]2CC[C@@H](C(=O)NC(c3ccccc3)c3ccccc3)N2C1=O [SM-405]	–	–	< 1	–	–	< 1	< 1	–
CN[C@@H](C)C(=O)N[C@H]1CN(C(=O)CCc2ccc(F)cc2)CC[C@H]2CC[C@@H](C(=O)NC(c3ccccc3)c3ccccc3)N2C1=O [SM-407]	–	–	< 1	–	–	< 1	< 1	–
CN[C@@H](C)C(=O)N[C@H]1CN(C(=O)CCc2ccccc2)CC[C@H]2CC[C@@H](C(=O)NC(c3ccccc3)c3ccccc3)N2C1=O [SM-408]	–	–	< 1	–	–	< 1	< 1	–
CCCC(=O)N1CC[C@H]2CC[C@@H](C(=O)NC(c3ccccc3)c3ccccc3)N2C(=O)[C@@H](NC(=O)[C@H](C)NC)C1 [SM-409]	–	–	< 1	–	–	< 1	< 1	–
CN[C@@H](C)C(=O)N[C@H]1CN(C(=O)CN2CCNC(=O)C2)CC[C@H]2CC[C@@H](C(=O)NC(c3ccccc3)c3ccccc3)N2C1=O [SM-412]	–	–	< 10	–	–	> 1	> 1	–
CN[C@@H](C)C(=O)N[C@H]1CN(C(=O)C[C@@H](O)C(=O)O)CC[C@H]2CC[C@@H](C(=O)NC(c3ccccc3)c3ccccc3)N2C1=O [SM-413]	–	–	< 1	–	–	< 100	< 100	–
CN[C@@H](C)C(=O)N[C@H]1CN(C(=O)CCn2ccnc2)CC[C@H]2CC[C@@H](C(=O)NC(c3ccccc3)c3ccccc3)N2C1=O [SM-414]	–	–	< 1	–	–	< 100	< 100	–
CN[C@@H](C)C(=O)N[C@H]1CN(C(=O)CC(C)(C)C)CC[C@H]2CC[C@@H](C(=O)NC(c3ccccc3)c3ccccc3)N2C1=O [SM-415]	–	–	< 1	–	–	< 1	< 1	–
CN[C@@H](C)C(=O)N[C@H]1CN(C(=O)C[C@H]2CC[C@H](O)C2)CC[C@H]2CC[C@@H](C(=O)NC(c3ccccc3)c3ccccc3)N2C1=O [SM-416]	–	–	< 1	–	–	< 10	< 10	–
CN[C@@H](C)C(=O)N[C@H]1CN(C(=O)[C@H]2CC[C@H](O)C2)CC[C@H]2CC[C@@H](C(=O)NC(c3ccccc3)c3ccccc3)N2C1=O [SM-418]	–	–	< 1	–	–	< 10	< 10	–
CN[C@@H](C)C(=O)N[C@H]1CN(C(=O)C[C@@H]2CCOC2)CC[C@H]2CC[C@@H](C(=O)NC(c3ccccc3)c3ccccc3)N2C1=O [SM-419]	–	–	< 1	–	–	< 10	< 10	–
CN[C@@H](C)C(=O)N[C@H]1CN(C(=O)CCC(C)C)CC[C@H]2CC[C@@H](C(=O)NC(c3ccccc3)c3ccccc3)N2C1=O [SM-420]	–	–	< 1	–	–	< 1	< 1	–
CN[C@@H](C)C(=O)N[C@H]1CN(C(=O)CCCc2ccccc2)CC[C@H]2CC[C@@H](C(=O)NC(c3ccccc3)c3ccccc3)N2C1=O [SM-421]	–	–	< 1	–	–	< 1	< 1	–
CN[C@@H](C)C(=O)N[C@H]1CN(C(=O)CCCC(C)C)CC[C@H]2CC[C@@H](C(=O)NC(c3ccccc3)c3ccccc3)N2C1=O [SM-422]	–	–	< 1	–	–	< 1	< 1	–
CN[C@@H](C)C(=O)N[C@H]1CN(C(=O)CC(C)C)CC[C@H]2CC[C@@H](C(=O)NC3CCCCC3)N2C1=O [SM-423]	–	–	< 10	–	–	< 100	< 100	–
CN[C@@H](C)C(=O)N[C@H]1CN(C(=O)CC(C)C)CC[C@H]2CC[C@@H](C(=O)N[C@H]3CCc4ccccc43)N2C1=O [SM-425]	–	–	< 1	–	–	< 10	< 10	–
CN[C@@H](C)C(=O)N[C@H]1CN(C(=O)CC(C)C)CC[C@H]2CC[C@@H](C(=O)NCc3ccc(C(F)(F)F)cc3)N2C1=O [SM-426]	–	–	< 10	–	–	< 10	< 10	–
